Literature values, collected in patent US20040062754A1, “Photopheresis treatment of chronic HCV infections” (priority 1996, published 2004).

Legend:
[1] = system: progressive systemic sclerosis; details: 56 patients enrolled

interferon-alpha
relapse rate after interferon therapy (hepatitis C virus; in vivo): 80-85%
patients with normal LFTs and nondetectable HCV RNA by RT-PCR seven years later (hepatitis C virus; ten patients, subcutaneous injections for up to a year): Six

CC(C)(S)[C@@H](N)C(=O)O [D-penicillamine]
response rate [1]: 32%

Nc1nc2c(ncn2COCCO)c(=O)[nH]1 [acyclovir]
benefit in chronic hepatitis C (hepatitis C virus; in vivo): little benefit

interferon alpha-2b, recombinant
sustained response off treatment (hepatitis C virus; six month course, 3 million units three times a week): 18%
